Where a name gives a salt, the structure may show the parent alone. Read-outs that look alike come from different tables or passages of the source.
What was measured:
Assay type in all cases: biochemical
[1] = target: T1, human JAK2 (a.a. 828-1132) (Homo sapiens, UniProt O60674); test: In vitro JAK kinase assay (HTRF, phosphorylation of a biotinylated peptide), JAK2
T1 construct: JAK2 (a.a. 828-1132); His tag (N); made in house; host or cells: insect cells (baculovirus)
In short: (§1)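 Kinase activity was measured as phosphorylation of a biotinylated peptide, with ATP at 90 μM for JAK1, 30 μM for JAK2 and 3 μM for JAK3. Reactions ran 1 hr at room temperature, were stopped with EDTA plus SA-APC and Eu-Py20, and were read by HTRF after 40 minutes of antibody binding.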

[2] = target: T2, human JAK1 (a.a. 837-1142) (Homo sapiens, UniProt P23458); test: In vitro JAK kinase assay (HTRF, phosphorylation of a biotinylated peptide), JAK1; conditions: read-out: JAK1 IC50
T2 construct: human JAK1 (a.a. 837-1142); His tag (N); made in house; host or cells: insect cells (baculovirus)
In short: as §1

TYK2 = TYK2 (Homo sapiens, UniProt P29597); test: TYK2 kinase inhibition (Table A1)
[3] = target: T3, human JAK3 (a.a. 781-1124) (Homo sapiens, UniProt P52333); test: In vitro JAK kinase assay (HTRF, phosphorylation of a biotinylated peptide), JAK3
T3 construct: JAK3 (a.a. 781-1124); His tag (N); made in house; host or cells: insect cells (baculovirus)
In short: as §1

[4] = target: T4, Recombinant Human Anaplastic Lymphoma Kinase (Homo sapiens, UniProt Q9UM73); test: ALK HTRF kinase assay; conditions: for IC50: Table B1, cells without percent sign
T4 construct: purchased Invitrogen, Carlsbad, Calif
In short: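 IC50 was obtained from a logistic fit of signal versus log inhibitor concentration, using pre- and post-transition baselines and a Hill slope. The signal reported tyrosine phosphorylation of a biotinylated peptide by recombinant human kinase, detected as Eu-to-APC energy transfer.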

[5] = compound at a concentration of 500 nM or 1 mM (not specified), cells shown as percentage
[6] = method AA1 (30 μM ATP) or AA2 (1000 μM ATP), not stated per value
[7] = method AA1 (90 μM ATP) or AA2 (1000 μM ATP), not stated per value
[8] = method AA1 (3 μM ATP) or AA2 (1000 μM ATP), not stated per value
[9] = compound at 500 nM or 1 mM, 90 μM ATP
[10] = percentage inhibition of the example compound at a concentration of 500 nM or 1 mM (not specified which)

T3 sequence (P52333 781-1124): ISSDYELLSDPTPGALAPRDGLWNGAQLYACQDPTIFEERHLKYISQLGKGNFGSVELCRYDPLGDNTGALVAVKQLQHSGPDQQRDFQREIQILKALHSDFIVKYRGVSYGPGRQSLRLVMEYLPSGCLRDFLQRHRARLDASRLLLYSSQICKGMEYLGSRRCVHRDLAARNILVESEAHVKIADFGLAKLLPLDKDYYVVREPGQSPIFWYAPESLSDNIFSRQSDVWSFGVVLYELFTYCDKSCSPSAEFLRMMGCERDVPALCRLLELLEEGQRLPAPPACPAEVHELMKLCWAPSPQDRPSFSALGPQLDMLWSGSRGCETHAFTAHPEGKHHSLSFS
T1 sequence (O60674 828-1132): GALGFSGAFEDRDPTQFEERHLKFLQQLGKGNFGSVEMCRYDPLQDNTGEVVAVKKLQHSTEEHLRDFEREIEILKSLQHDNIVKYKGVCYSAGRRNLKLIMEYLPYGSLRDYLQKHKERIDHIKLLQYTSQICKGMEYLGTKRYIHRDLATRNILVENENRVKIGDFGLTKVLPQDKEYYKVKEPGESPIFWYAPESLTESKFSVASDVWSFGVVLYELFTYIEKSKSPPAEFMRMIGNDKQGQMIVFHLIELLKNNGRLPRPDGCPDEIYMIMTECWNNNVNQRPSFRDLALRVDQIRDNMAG
T2 sequence (P23458 849-1154): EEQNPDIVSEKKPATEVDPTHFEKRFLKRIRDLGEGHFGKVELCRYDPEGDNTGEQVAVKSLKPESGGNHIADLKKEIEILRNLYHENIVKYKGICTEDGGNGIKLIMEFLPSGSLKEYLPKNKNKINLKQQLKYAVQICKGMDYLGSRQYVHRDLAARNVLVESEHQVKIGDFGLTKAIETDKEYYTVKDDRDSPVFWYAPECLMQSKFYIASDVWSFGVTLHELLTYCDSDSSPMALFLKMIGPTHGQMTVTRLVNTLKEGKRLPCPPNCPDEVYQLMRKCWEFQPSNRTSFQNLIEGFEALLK
Sequence of TYK2 (P29597 whole entry): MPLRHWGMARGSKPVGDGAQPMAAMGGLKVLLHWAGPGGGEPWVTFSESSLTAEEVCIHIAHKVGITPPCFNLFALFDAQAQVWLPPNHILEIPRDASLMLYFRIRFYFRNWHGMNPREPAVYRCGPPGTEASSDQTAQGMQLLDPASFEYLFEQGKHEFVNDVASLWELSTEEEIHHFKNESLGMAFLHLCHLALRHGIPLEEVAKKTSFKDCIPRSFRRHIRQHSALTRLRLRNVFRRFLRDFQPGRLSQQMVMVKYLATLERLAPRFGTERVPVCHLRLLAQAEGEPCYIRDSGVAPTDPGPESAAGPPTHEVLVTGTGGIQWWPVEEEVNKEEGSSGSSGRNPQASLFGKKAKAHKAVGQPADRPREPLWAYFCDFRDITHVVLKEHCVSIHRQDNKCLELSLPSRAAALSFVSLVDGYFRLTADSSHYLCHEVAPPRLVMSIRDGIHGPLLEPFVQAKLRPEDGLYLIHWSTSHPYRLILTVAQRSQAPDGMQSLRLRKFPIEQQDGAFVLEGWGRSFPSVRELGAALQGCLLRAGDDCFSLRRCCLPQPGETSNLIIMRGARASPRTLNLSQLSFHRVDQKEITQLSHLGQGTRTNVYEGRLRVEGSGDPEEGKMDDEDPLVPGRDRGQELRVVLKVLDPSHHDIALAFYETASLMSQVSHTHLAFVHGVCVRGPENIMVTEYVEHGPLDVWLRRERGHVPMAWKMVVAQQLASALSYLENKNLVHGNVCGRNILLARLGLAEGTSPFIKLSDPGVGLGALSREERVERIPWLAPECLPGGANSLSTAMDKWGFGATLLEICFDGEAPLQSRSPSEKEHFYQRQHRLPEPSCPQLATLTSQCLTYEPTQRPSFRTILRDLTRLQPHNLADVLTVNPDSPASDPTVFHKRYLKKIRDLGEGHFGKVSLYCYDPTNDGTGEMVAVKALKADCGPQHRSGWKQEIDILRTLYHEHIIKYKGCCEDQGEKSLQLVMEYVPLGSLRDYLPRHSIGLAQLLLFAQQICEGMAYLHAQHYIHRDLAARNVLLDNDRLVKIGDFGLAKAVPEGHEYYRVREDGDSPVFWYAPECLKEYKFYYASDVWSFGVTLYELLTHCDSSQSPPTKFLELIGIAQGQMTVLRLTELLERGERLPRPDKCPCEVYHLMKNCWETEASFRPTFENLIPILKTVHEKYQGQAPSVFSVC
T4 sequence (Q9UM73 19-1620): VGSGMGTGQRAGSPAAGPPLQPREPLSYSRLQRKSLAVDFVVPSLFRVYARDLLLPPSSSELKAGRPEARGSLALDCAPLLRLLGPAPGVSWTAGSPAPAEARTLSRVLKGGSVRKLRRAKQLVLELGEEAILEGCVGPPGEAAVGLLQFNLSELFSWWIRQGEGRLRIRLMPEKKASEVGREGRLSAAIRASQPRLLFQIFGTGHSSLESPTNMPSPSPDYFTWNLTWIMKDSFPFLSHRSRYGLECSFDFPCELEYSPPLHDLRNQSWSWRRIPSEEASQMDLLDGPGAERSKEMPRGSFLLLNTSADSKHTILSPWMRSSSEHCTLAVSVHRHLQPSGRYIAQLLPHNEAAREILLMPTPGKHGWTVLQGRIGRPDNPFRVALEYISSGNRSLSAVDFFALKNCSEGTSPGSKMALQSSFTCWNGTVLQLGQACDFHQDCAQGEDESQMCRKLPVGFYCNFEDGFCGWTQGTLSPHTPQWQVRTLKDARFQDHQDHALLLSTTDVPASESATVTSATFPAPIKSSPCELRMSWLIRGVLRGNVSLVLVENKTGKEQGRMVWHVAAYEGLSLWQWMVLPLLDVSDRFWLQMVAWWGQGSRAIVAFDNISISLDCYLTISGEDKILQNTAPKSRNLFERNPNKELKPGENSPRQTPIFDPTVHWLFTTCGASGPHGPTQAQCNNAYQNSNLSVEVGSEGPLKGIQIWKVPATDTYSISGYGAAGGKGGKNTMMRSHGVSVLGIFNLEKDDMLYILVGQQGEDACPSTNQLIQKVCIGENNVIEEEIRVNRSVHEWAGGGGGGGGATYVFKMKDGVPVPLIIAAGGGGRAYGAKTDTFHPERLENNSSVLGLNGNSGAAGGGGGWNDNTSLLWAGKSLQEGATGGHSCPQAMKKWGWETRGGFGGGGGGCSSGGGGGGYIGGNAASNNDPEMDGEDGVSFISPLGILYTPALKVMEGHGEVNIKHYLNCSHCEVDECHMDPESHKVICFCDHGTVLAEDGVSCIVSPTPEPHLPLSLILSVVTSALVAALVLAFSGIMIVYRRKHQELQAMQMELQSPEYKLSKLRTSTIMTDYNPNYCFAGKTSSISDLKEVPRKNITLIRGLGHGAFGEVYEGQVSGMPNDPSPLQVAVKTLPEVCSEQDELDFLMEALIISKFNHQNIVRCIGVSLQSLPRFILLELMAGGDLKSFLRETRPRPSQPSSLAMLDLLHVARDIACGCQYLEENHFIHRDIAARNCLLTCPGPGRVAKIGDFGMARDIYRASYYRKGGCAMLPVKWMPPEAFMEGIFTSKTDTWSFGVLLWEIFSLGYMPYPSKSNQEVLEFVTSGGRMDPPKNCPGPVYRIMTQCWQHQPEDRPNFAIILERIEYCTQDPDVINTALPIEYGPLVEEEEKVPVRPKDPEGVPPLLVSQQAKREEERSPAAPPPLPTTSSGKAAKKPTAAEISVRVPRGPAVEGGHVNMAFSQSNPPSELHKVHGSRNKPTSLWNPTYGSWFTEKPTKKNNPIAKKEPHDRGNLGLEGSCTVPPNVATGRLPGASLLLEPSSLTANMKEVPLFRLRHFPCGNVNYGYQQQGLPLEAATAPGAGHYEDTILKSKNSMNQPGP

Row | IC50 ([1]; Table B1) | IC50 ([2]; Table B1) | IC50 (TYK2; Table B1) | IC50 ([3]; Table B1) | ALK % of inhibition at a concentration of 500 nM or 1 mM [4, 5] | IC50 [4] | IC50 [1, 6] | IC50 [2, 7] | IC50 (TYK2) | IC50 [3, 8] | ALK % of inhibition at a concentration of 500 nM or 1 mM [4, 9] | ALK % of inhibition at a concentration of 500 nM or 1 mM [4, 10] | Compound
1 | 0.53 nM | 0.56 nM | 1.2 nM | 1.7 nM | 73% | – | – | – | – | – | – | – | O=C(Nc1ccc2cc1CCc1cccc(c1)Nc1ncc(Cl)c(n1)N2)c1cnn2ccccc12 [Example B80, N-[6-Chloro-2,4,8,22-tetraazatetracyclo[14.3.1.1(3,7).1(9,13)]docosa-1(20),3(22),4,6,9(21),10,12,16,18-nonaen-12-yl]pyrazolo[1,5-a]pyridine-3-carboxamide bis(trifluoroacetate)]
2 | 19 nM | 44 nM | 34 nM | 102 nM | – | > 10000 nM | – | – | – | – | – | – | O=S(=O)(Nc1cc2cc(c1)Nc1nc(ncc1Cl)Nc1cccc(c1)CC2)c1ccccc1 [Example B203, N-[6-Chloro-2,4,8,22-tetraazatetracyclo[14.3.1.1(3,7).1(9,13)]docosa-1(20),3(22),4,6,9(21),10,12,16,18-nonaen-11-yl]benzenesulfonamide trifluoroacetate]
3 | 2.7 nM | 1.7 nM | 4.3 nM | 26 nM | 16% | – | – | – | – | – | – | – | O=S(=O)(Nc1ccc2cc1CCc1cccc(c1)Nc1ncc(Cl)c(n1)N2)c1ccc(C(F)(F)F)cc1 [Example B162, N-[6-Chloro-2,4,8,22-tetraazatetracyclo[14.3.1.1(3,7).1(9,13)]docosa-1(20), 3(22),4,6,9(21),10,12,16,18-nonaen-12-yl]-4-(trifluoromethyl)benzenesulfonamide trifluoroacetate]
4 | – | – | – | – | – | – | 23 nM | 9.1 nM | 9 nM | 160 nM | 18% | – | CN(C)C(=O)N1CCC(CC(=O)Nc2ccc3cc2CCc2cncc(c2)Nc2ncc(Cl)c(n2)N3)CC1 [Example A95, 4-(2-{[6-Chloro-2,4,8,18,22-pentaazatetracyclo[14.3.1.1(3,7).1(9,13)]docosa-1(20),3(22),4,6,9(21),10,12,16,18-nonaen-12-yl]amino}-2-oxoethyl)-N,N-dimethylpiperidine-1-carboxamide bis(trifluoroacetate)]
5 | 179 nM | 17 nM | 98 nM | > 400 nM | – | – | – | – | – | – | – | 40% | CN(Cc1ccc2cc1CCc1cncc(c1)Nc1ncc(Cl)c(n1)N2)CC1CCN(C(=O)c2ccno2)CC1 [Example B345, 1-[6-Chloro-2,4,8,18,22-pentaazatetracyclo[14.3.1.1(3,7).1(9,13)]docosa-1(20),3(22),4,6,9(21),10,12,16,18-nonaen-12-yl]-N-{[1-(isoxazol-5-ylcarbonyl)piperidin-4-yl]methyl}-N-methylmethanamine tris(trifluoroacetate)]
6 | 19 nM | 9.2 nM | 1.6 nM | 2.6 nM | 63% | – | – | – | – | – | – | – | O=C(Nc1nc[nH]n1)Nc1ccc2cc1CCc1cccc(c1)Nc1ncc(Cl)c(n1)N2 [Example B244, N-[6-Chloro-2,4,8,22-tetraazatetracyclo[14.3.1.1(3,7).1(9,13)]docosa-1(20),3(22),4,6,9(21),10,12,16,18-nonaen-12-yl]-N′-1H-1,2,4-triazol-3-ylurea trifluoroacetate]
7 | 4.7 nM | 0.92 nM | 8.7 nM | 40 nM | 44% | – | – | – | – | – | – | – | COc1cccc(NC(=O)Nc2ccc3cc2CCc2cccc(c2)Nc2ncc(Cl)c(n2)N3)c1 [Example B100, N-[6-Chloro-2,4,8,22-tetraazatetracyclo[14.3.1.1(3,7).1(9,13)]docosa-1(20), 3(22),4,6,9(21),10,12,16,18-nonaen-12-yl]-N′-(3-methoxyphenyl)urea trifluoroacetate]
8 | – | – | – | – | – | – | 5.6 nM | 3.4 nM | 9.5 nM | 16 nM | 12% | – | Cn1ccc2c(NC(=O)N3CCN(C(=O)COc4ccc5cc4CCc4cccc(c4)Nc4ncc(Cl)c(n4)N5)CC3)cccc21 [Example A11, 4-({[6-Chloro-2,4,8,22-tetraazatetracyclo[14.3.1.1(3,7).1(9,13)]docosa-1(20),3(22),4,6,9(21),10,12,16,18-nonaen-12-yl]oxy}acetyl)-N-(1-methyl-1H-indol-4-yl)piperazine-1-carboxamide trifluoroacetate]
9 | 6.7 nM | 5 nM | 22 nM | 35 nM | 15% | – | – | – | – | – | – | – | O=C(NCCNC(=O)c1ccccc1)Nc1ccc2cc1CCc1cccc(c1)Nc1ncc(Cl)c(n1)N2 [Example B189, N-{2-[({[6-Chloro-2,4,8,22-tetraazatetracyclo[14.3.1.1(3,7).1(9,13)]docosa-1(20),3(22),4,6,9(21),10,12,16,18-nonaen-12-yl]amino}carbonyl)amino]ethyl}benzamide trifluoroacetate]

The next lines start with the compound.

Row | Compound | IC50 ([1]; Table B1) | IC50 ([2]; Table B1) | IC50 (TYK2; Table B1) | IC50 ([3]; Table B1) | ALK % of inhibition at a concentration of 500 nM or 1 mM [4, 5] | IC50 [4] | IC50 [1, 6] | IC50 [2, 7] | IC50 (TYK2) | IC50 [3, 8] | ALK % of inhibition at a concentration of 500 nM or 1 mM [4, 9] | ALK % of inhibition at a concentration of 500 nM or 1 mM [4, 10]
10 | Cc1cncc(N2CCN(C(=O)Nc3ccc4cc3CCc3cncc(c3)Nc3ncc(Cl)c(n3)N4)CC2)n1 [Example B308, N-[6-Chloro-2,4,8,18,22-pentaazatetracyclo[14.3.1.1(3,7).1(9,13)]docosa-1(20),3(22),4,6,9(21),10,12,16,18-nonaen-12-yl]-4-(6-methylpyrazin-2-yl)piperazine-1-carboxamide tris(trifluoroacetate)] | 83 nM | 16 nM | 34 nM | > 400 nM | – | – | – | – | – | – | – | 79%
11 | O=C(Nc1nnn[nH]1)Nc1ccc2cc1CCc1cccc(c1)Nc1ncc(Cl)c(n1)N2 [Example B251, N-[6-Chloro-2,4,8,22-tetraazatetracyclo[14.3.1.1(3,7).1(9,13)]docosa-1(20),3(22),4,6,9(21),10,12,16,18-nonaen-12-yl]-N′-1H-tetrazol-5-ylurea trifluoroacetate] | 37 nM | 53 nM | 14 nM | 4.2 nM | 44% | – | – | – | – | – | – | –
12 | CN(C(=O)Nc1ccc2cc1CCc1cncc(c1)Nc1ncc(Cl)c(n1)N2)[C@H]1CCNC1 [Example B288, N′-[6-Chloro-2,4,8,18,22-pentaazatetracyclo[14.3.1.1(3,7).1(9,13)]docosa-1(20),3(22),4,6,9(21),10,12,16,18-nonaen-12-yl]-N-methyl-N-[(3S)-pyrrolidin-3-yl]urea tris(trifluoroacetate)] | 180 nM | 42 nM | > 200 nM | > 200 nM | 18% | – | – | – | – | – | – | –
13 | O=C(Nc1ccc2cc1CCc1cccc(c1)Nc1ncc(Cl)c(n1)N2)C1CCCCC1 [Example B63, N-[6-Chloro-2,4,8,22-tetraazatetracyclo[14.3.1.1(3,7).1(9,13)]docosa-1(20), 3(22),4,6,9(21),10,12,16,18-nonaen-12-yl]cyclohexanecarboxamide trifluoroacetate] | 12 nM | 18 nM | 34 nM | 56 nM | – | 600 nM | – | – | – | – | – | –
14 | O=C(Nc1ccc2cc1CCc1cccc(c1)Nc1ncc(Cl)c(n1)N2)c1cccnc1Cl [Example B70, 2-Chloro-N-[6-chloro-2,4,8,22-tetraazatetracyclo[14.3.1.1(3,7).1(9,13)]docosa-1(20),3(22),4,6,9(21),10,12,16,18-nonaen-12-yl]nicotinamide bis(trifluoroacetate)] | 0.64 nM | 1.5 nM | 2.5 nM | 2.4 nM | 82% | – | – | – | – | – | – | –
15 | CN(C(=O)Nc1ccc2cc1CCc1cncc(c1)Nc1ncc(Cl)c(n1)N2)[C@H]1CCN(Cc2ccccc2)C1 [Example B284, N-[(3S)-1-Benzylpyrrolidin-3-yl]-N′-[6-chloro-2,4,8,18,22-pentaazatetracyclo[14.3.1.1(3,7).1(9,13)]docosa-1(20),3(22),4,6,9(21),10,12,16,18-nonaen-12-yl]-N-methylurea] | 368 nM | 72 nM | 409 nM | > 1000 nM | 25% | – | – | – | – | – | – | –
16 | O=C(CC1CCN(C(=O)c2cnccn2)CC1)Nc1ccc2cc1CCc1cncc(c1)Nc1ncc(Cl)c(n1)N2 [Example A102, N-[6-Chloro-2,4,8,18,22-pentaazatetracyclo[14.3.1.1(3,7).1(9,13)]docosa-1(20),3(22),4,6,9(21),10,12,16,18-nonaen-12-yl]-2-[1-(pyrazin-2-ylcarbonyl)piperidin-4-yl]acetamide tris(trifluoroacetate)] | – | – | – | – | – | – | 20 nM | 10 nM | 19 nM | 170 nM | 21% | –
